{
  "source": "paper PMC6429214",
  "about": "“Design, Synthesis and Biological Evaluation of Isoxazole-Based CK1 Inhibitors Modified with Chiral Pyrrolidine Scaffolds” (Molecules, 2019)",
  "key": {"[1]": {"assay": "LC-MS of aqueous solutions with and without PEG", "format": "physicochemical", "conditions": "LC-MS over 7 days, not in solutions without PEG", "text": "Since all analytical data for the originally employed inhibitors was consistent with the given structures, we postulate that the incorporation of an additional methylene group occurred via spontaneous Pictet-Spengler cyclization during crystallization. In line with this notion, PEG, which has been used in our soaking solutions, is known to generate formaldehyde traces that have been shown in the past to affect the derivatization of both, proteins and ligands. To further corroborate this hypothesis, we examined whether simple exposure of 29d/e to formaldehyde would give rise to the same Pictet-Spengler products 31a/b (Scheme 5). Indeed, when compounds 29d/e were treated with formaldehyde at room temperature 31a/b were formed readily and the obtained spectroscopic data was consistent with the predicted Pictet-Spengler products. In addition, aqueous solutions of 29d and 29e with and without PEG were analyzed by liquid chromatography-mass spectrometry (LC-MS) over a period of 7 days.\nLC-MS was performed with a Bruker Esquire ~LC ion trap mass spectrometer (Bremen, Germany) in the positive ion mode (dry gas 9 L/min, nebulizer 35 psi, drying temperature 350 °C) after chromatographic separation using an Agilent 1100 HPLC system (Waldbronn, Germany) with a RP-8 column (Agilent Eclipse XDB-C8, 150 × 4.6 mm, 5 μm) and a 0.1% acetic acid/acetonitrile gradient."}, "[2]": {"tested_on": "HT-29 cells", "assay": "MTT cell viability assay HT-29", "format": "cell-based, human", "conditions": "Homo sapiens, HT-29, 48 h, mean ± SD", "description": "The human colon adenocarcinoma cell line HT-29 was grown in McCoy’s 5A medium, whereas MCF7 cells were grown in DMEM medium. All media were supplemented with 10% fetal calf serum (FCS), 100 units/mL penicillin, 100 µg/mL streptomycin and 2 mM glutamine. All cells were grown at 37 °C in a humidified 5% carbon dioxide atmosphere.\nIn order to analyze the effects of selected inhibitors on the cell viability of HT-29 and MCF7 cells, MTT assays were performed. 1 × 10^4 cells/well were seeded in 96-well cell culture plates. After 24 h cells were treated with increasing concentrations of the indicated inhibitor compounds, with untreated and DMSO-treated cells as control. After an incubation period of 48 h, 10 µL of MTT solution (5 mg/mL in PBS) were added and cells were incubated for 4 h. MTT-containing medium was carefully removed and 100 µL acidic isopropanol (0.04 N HCl in isopropanol) per well were added. To dissolve formazan crystals, plates were shaken for 30 min on an orbital shaker in the dark. Finally, dissolved crystals were measured spectrophotometrically at 570 nm. All experiments were performed in triplicate with four technical replicates per assay. Results were normalized considering the mean optical density value of control wells as 100%. GraphPad Prism 6 software (San Diego, CA, USA) was used to calculate EC50 values."}, "[3]": {"target": "T1, human GST-CK1ε (Homo sapiens, UniProt P49674)", "T1 construct": "purchased Invitrogen PV3500", "T1 sequence (P49674 whole entry)": "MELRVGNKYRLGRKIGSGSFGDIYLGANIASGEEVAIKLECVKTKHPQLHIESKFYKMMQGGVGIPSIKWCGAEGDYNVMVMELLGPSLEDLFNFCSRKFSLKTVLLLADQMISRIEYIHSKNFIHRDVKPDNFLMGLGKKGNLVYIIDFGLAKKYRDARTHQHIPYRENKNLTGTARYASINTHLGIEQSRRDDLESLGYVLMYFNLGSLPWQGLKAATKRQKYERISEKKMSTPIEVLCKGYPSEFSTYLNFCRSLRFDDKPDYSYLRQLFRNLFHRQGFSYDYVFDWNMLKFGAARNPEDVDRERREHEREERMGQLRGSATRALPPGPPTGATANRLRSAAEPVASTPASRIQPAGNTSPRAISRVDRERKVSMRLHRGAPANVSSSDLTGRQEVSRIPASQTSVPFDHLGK", "assay": "in-vitro kinase assay CK1ε", "format": "biochemical", "conditions": "10 µM ATP, mean ± SD, n = 3", "description": "In vitro kinase assays have been performed to both screen, as well as to calculate IC50 values of the compounds for CK1δ and ε. Each reaction was carried out using 2 μCi ^32P-γ-ATP in kinase buffer containing 25 mM Tris-HCl (pH = 7.5), 10 mM MgCl2, 100 µM EDTA, and 10 µM ATP. […] Recombinant human CK1δ transcription variant 1 (expressed and purified as GST fusion protein as described earlier) and human GST-CK1ε (PV3500; Invitrogen) were used as sources of enzyme, while α-casein (C6780; Sigma-Aldrich) was used as substrate. Kinase reactions were incubated for 30 min at 30 °C and then stopped with loading dye (50 mM Tris-HCl (pH = 6.8), 5% (v/v) β-mercaptoethanol (MSH), 10% (v/v) glycerol, 2% (w/v) sodium dodecyl sulfate (SDS), 0.1% (w/v) bromphenol blue). Subsequently, reactions were separated by sodium dodecyl sulfate polyacrylamide gel electrophoresis (SDS-PAGE) and phosphorylated protein bands were visualized on dried gels by autoradiography. The phosphorylated substrate protein bands were excised, and phosphorylation was quantified by Cherenkov counting. Dose-response analyses and calculation of IC50 values were carried out using GraphPad Prism 6 statistical software (San Diego, CA, USA)."}},
  "data": [
    {"smiles": "COc1ccc(-c2cc(C(=O)Nc3cc(-c4c(-c5ccc(F)cc5)noc4C(C)C)ccn3)n(CC3NCC(O)C3O)c2)cc1", "note": "(stereo not shown) [29d]", "values": [
      {"measurement": "formation of Pictet-Spengler products in aqueous solution with PEG", "setting": "[1]", "result": "significant product formation"},
      {"measurement": "viability at 5 µM", "setting": "[2]; 5 µM", "result": "76 ± 13", "unit": "%"},
      {"measurement": "viability at 10 µM", "setting": "[2]; 10 µM", "result": "51 ± 8", "unit": "%"},
      {"measurement": "viability at 20 µM", "setting": "[2]; 20 µM", "result": "14 ± 2", "unit": "%"},
      {"measurement": "EC50", "setting": "[2]", "result": "8 ± 1.7", "unit": "µM"},
      {"measurement": "IC50", "setting": "[3]", "result": "0.065 ± 0.012", "unit": "µM"},
      {"measurement": "remaining activity at 10 µM", "setting": "[3]; 10 µM compound, read-out: CK1ε Residual Activity [%] at 10 µM ± SD", "result": "12 ± 2", "unit": "%"}
    ]}
  ]
}
